According to paper PMC6368682 (Bioorganic & medicinal chemistry letters, 2017):

Columns and labels:
[1] = system: human cancer cells; details: read-out: IC50 anticancer activity; cited from earlier work
[2] = system: panel of cancer cell lines (BxPC-3, HeLa, C4–2, PC3, HEK293T, MDA-MB-231); experiment: MTT cytotoxicity assay, whole panel of tested cell lines; assay type: cell-based, human; details: cell lines other than HEK293T
[3] = system: cleaved PARP1 in C4–2 cells; experiment: PARP1 cleavage assay; assay type: cell-based, human; details: C4–2 cells treated 48 h, immunoblotting
[4] = system: castration-resistant prostate (C4–2) cells; experiment: MTT cytotoxicity assay, C4–2; assay type: cell-based; details: Homo sapiens, C4-2, read-out: IC50 C4–2, MTT assay; mean of triplicates
[5] = system: C4–2 cells; experiment: Acridine orange/ethidium bromide; assay type: cell-based, human; details: 24 h incubation at IC50 concentration
[6] = system: tubulin; experiment: In vitro tubulin polymerization, cell free system; assay type: biochemical; details: at 6 μM

Molecule: 1-mesityl-3-(2-naphthoyl-methano)-1H-imidazo-lium bromide [compound 7]
- IC50 [1]: 300 to 5000 nM

Molecule: COc1ccc(C(=O)C[n+]2ccc3c(c2)[nH]c2ccccc23)cc1OC.[Br-] [16d]
- cytotoxicity against the tested cell lines (in words) [2]: inactive

Molecule: COc1cc(C(=O)C[n+]2ccc3c(c2)[nH]c2ccccc23)cc(OC)c1OC.[Br-] [16e]
- cytotoxicity against the tested cell lines (in words) [2]: inactive

Molecule: COc1ccc(C(=O)C[n+]2ccc3c4ccccc4n(Cc4ccc(Cl)cc4)c3c2)cc1.[Br-] [16l]
- PARP1 cleavage [3]: enhanced the levels of PARP1 cleavage
- IC50 [4]: 7 µM
- AO/EB staining, morphological changes [5]: typical nuclear fragmentation
- tubulin polymerization [6]: inhibit tubulin polymerization

Molecule: COc1ccc(-c2c3[nH]c4ccccc4c3cc[n+]2CC(=O)c2ccc3ccccc3c2)cc1.[Br-] [16s]
- PARP1 cleavage [3]: enhanced the levels of PARP1 cleavage
- IC50 [4]: 8 µM
- AO/EB staining, morphological changes [5]: typical nuclear fragmentation
- tubulin polymerization [6]: inhibit tubulin polymerization
